Like-named read-outs stand apart in the source and are kept apart here.
Legend:
CD45 = molecular target: T1, CD45 (Homo sapiens, UniProt P08575); assay: Counter-screen phosphatase assay CD45; type: biochemical; conditions: Table II
T1 construct: The catalytic domain of CD45 was purchased from Biomol Inc; purchased Biomol Inc
T1 sequence (P08575 653-912 limits assumed): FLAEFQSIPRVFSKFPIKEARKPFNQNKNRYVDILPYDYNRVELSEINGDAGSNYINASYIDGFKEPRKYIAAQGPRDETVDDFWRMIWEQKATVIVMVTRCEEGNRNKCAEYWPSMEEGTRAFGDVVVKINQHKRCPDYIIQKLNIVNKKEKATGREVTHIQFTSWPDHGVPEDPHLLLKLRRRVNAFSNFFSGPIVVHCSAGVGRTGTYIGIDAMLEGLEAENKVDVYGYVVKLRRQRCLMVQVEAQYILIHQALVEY
Procedure: Materials, chemicals and enzymes. All chemicals were purchased from commercial sources unless otherwise noted. Compounds were dissolved in DMSO, and stock solutions were stored at −20° C. The catalytic domain of CD45 was purchased from Biomol Inc.

LMPTP-A = molecular target: T2, LMPTP-A (Homo sapiens, UniProt P24666); assay: biochemical
T2 sequence (P24666 1-158): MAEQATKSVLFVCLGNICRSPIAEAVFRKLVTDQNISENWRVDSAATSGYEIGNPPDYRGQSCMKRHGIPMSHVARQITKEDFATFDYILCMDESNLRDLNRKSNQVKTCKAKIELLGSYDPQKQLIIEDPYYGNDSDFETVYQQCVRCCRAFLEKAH

PTP-PEST = molecular target: T3, PTP-PEST (Homo sapiens, UniProt Q05209); assay: Counter-screen phosphatase assay PTP-PEST; type: biochemical
T3 sequence (Q05209 2-323): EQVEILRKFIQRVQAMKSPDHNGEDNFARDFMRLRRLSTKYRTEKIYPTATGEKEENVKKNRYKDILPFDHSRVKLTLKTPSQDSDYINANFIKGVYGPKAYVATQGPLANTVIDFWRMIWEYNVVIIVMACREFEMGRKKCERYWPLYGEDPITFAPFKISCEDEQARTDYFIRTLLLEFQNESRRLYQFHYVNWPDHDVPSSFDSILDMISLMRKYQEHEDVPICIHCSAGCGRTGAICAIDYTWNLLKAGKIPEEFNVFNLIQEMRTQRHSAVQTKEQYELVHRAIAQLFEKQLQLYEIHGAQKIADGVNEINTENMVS

ERK1/2 phosphorylation = assay: Anti-pERK1/2 blot of JTAg cells; conditions: 50 μM, 1 h
Procedure: (§1) The volume of DMSO added was held constant at less than 2% of the total volume. JTAg cells pre-incubated with DMSO or inhibitor were divided into 400 μL aliquots containing 10×10^6 cells and stimulated with supernatants of C305 hybridoma (31) for 2 min or left untreated. […] The total protein concentration in each cell lysate was determined by the Bradford protein assay (Bio-Rad) in order to normalize the amount of protein used in SDS-PAGE.
(§2) Aliquots of lysates were suspended in SDS sample buffer, heated at 95° C. for 5 minutes and the boiled samples run on 10% SDS-polyacrylamide gels. Proteins resolved by gel electrophoresis were transferred onto nitrocellulose membranes (Hybond ECL, GE Healthcare), using appropriate dilutions of unconjugated primary antibodies followed by HRP-conjugated secondary antibodies (purchased from GE Healthcare). Blots were developed with the enhanced chemiluminescence detection system, ECL-Plus, following manufacturers directions.

[1] = system: phosphorylation of Lck at Tyr394; assay: Anti-pSrc (Tyr416) immunoblot of thymocytes from PTPN22-/- mice; conditions: 50 μM, 1 h, anti-CD3/anti-CD4 plus streptavidin
Procedure: (§3) The volume of DMSO added was held constant at less than 2% of the total volume. Thymocytes pre-incubated with DMSO or inhibitor were divided into 200 μL aliquots containing 10×10^6 cells, treated with biotinylated CD3 and CD4 antibodies for 30 min and stimulated with the crosslinker, streptavidin for 1.5 min, or left untreated.
as §2
(§4) In parallel, the compound was also tested on T cells from normal PTPN22+/+ mice.

[2] = system: phosphorylation of ZAP-70; assay: Anti-pZAP (Tyr319) blot of JTAg cells; conditions: 50 μM, 1 h
Procedure: as §1, §2

[3] = system: phosphorylation of Lck at Tyr394; assay: Anti-pSrc (Tyr416) immunoblot of thymocytes from PTPN22+/+ mice; conditions: 50 μM, 1 h, anti-CD3/anti-CD4 plus streptavidin
Procedure: as §3, §2, §4

[4] = system: TCR-induced phosphorylation of SLP-76; assay: Phospho-flow cytometry of JTAg cells, anti-pSLP76 (Tyr128); conditions: 50 μM, 1 h, compared to control
Procedure: Phosphoflow cytometry. Phospho-flow cytometry was performed on JTAg cells following published protocols (BD Biosciences). […] Cell fluorescence was assessed on a Cytomics FC500 cytometer (Beckman Coulter) at the USC Immune Monitoring Core. Data Analysis and graph preparation were carried using FlowJo (Tree Star, Inc., Ashland, Oreg.).

HePTP = molecular target: T4, HePTP (Homo sapiens, UniProt P35236); assay: biochemical
T4 sequence (P35236 65-360): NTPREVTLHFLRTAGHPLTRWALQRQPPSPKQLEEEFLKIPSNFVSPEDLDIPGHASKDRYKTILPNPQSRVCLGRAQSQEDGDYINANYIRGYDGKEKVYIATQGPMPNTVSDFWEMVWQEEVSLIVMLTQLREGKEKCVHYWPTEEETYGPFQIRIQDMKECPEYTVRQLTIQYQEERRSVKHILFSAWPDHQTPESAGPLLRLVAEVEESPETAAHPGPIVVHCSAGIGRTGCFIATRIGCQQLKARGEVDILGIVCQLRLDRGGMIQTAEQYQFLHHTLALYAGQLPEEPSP

LYP/PTPN22 = molecular target: T5, LYP/PTPN22 (Homo sapiens, UniProt Q9Y2R2); assay: biochemical
T5 construct: catalytic domains of LYP (aa 2-309) and PTP-PEST (aa 2-323, PEST); 6xHis (N, cleaved yes); made in house; host or cells: E. coli BL21
T5 sequence (Q9Y2R2 2-309): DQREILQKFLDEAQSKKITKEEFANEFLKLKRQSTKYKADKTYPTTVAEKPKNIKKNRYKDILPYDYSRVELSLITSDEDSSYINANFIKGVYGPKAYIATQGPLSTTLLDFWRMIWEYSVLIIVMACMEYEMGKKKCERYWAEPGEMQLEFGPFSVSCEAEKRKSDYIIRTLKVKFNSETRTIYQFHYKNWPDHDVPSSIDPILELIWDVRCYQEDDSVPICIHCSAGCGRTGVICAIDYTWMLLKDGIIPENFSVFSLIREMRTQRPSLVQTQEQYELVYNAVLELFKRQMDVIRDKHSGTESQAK
Procedure: Chemical Library Screening for LYP Inhibitors. A library consisting of a highly diverse set of 4,000 compounds was screened in a 96-well format in an assay specific for LYP activity. […] The reaction mixture with the compounds was incubated for 25 min at 37° C. […] All assays were done in triplicate. The IC50 values were then determined for each drug from a plot of log [drug concentration] versus percentage of enzyme inhibition. Absorbance data were measured using a Molecular Devices Emax Precision Microplate reader.
Identification of Compounds as LYP Inhibitors. We initially screened a library of 4000 drug-like small-molecule compounds against LYP/PTPN22, using p-nitrophenyl phosphate (pNPP) as a substrate. The ability of the library members to inhibit LYP/PTPN22 catalyzed hydrolysis of pNPP was measured in a buffer containing 50 mM Bis-Tris pH 6.0, 1 mM DTT at 37° C.

[5] = LYP IC50, Table IV, analogues of E3P13
[6] = selectivity, ratio PEST IC50 / LYP IC50, Table IV

Structure (SMILES) | IC50 (LYP/PTPN22; [5]) [µM] | PEST_LYP (LYP/PTPN22; [6]) | IC50 (PTP-PEST; read-out: PEST IC50) [µM] | also measured
COc1ccc(-n2ncc3c(SCC(=O)N4c5ccccc5CC4C)ncnc32)cc1 (racemic) [B11P32] | – | – | – | IC50 (CD45): > 90 µM; IC50 (LMPTP-A): > 90 µM; IC50 (PTP-PEST; Table II, read-out: PTP-PEST IC50): > 40 µM
Cc1ccc2[nH]c(=O)c(C(c3nnnn3C3CCCC3)N3CCCC4(CCCCC4)C3)cc2c1 (racemic) [E3P13] | – | – | – | ERK1/2 phosphorylation (ERK1/2 phosphorylation): increased ERK1/2 phosphorylation; phosphorylation of Lck at Tyr394 [1]: no effect; TCR-stimulated phosphorylation of ZAP-70 (Tyr319) [2]: increased TCR-stimulated phosphorylation of ZAP-70; Lck phosphorylation at Tyr394 [3]: increased Lck phosphorylation at Tyr394; TCR-induced SLP-76 phosphorylation [4]: higher levels of TCR-induced SLP-76 phosphorylation
O=C(CSc1nc(C2CC2)nc2sc3c(c12)CCCC3)NCc1ccc2c(c1)OCO2 [G8P15] | – | – | – | IC50 (CD45): > 90 µM; IC50 (HePTP): > 40 µM; IC50 (LMPTP-A): > 90 µM
COc1ccc2cc([C@H](c3nnnn3Cc3ccccc3)N3CCCC4(CCCCC4)C3)c(=O)[nH]c2c1 [compound 27] | 19.3 | 0.71 | 13.7 | –
Cc1cc(C)c2cc([C@H](c3nnnn3C(C)(C)C)N3CCCC4(CCCCC4)C3)c(=O)[nH]c2c1 [compound 28] | 19.7 | 1.33 | 26.1 | –
Cc1ccc2cc([C@H](c3nnnn3C(C)(C)C)N3CCCC4(CCCCC4)C3)c(=O)[nH]c2c1 [compound 29] | 20.3 | 1.33 | 27.1 | –
Cc1cc(C)c2[nH]c(=O)c(C(c3nnnn3C3CCCC3)N3CCCC4(CCCCC4)C3)cc2c1 (stereo not shown) [compound 30] | – | – | 31.1 | PEST_LYP (LYP/PTPN22): 1.53; IC50 (LYP/PTPN22; LYP IC50): 20.4 µM
Cc1cccc2cc([C@H](c3nnnn3Cc3ccccc3)N3CCCC4(CCCCC4)C3)c(=O)[nH]c12 [compound 31] | 20.4 | 1.46 | 29.8 | –
Cc1ccc2[nH]c(=O)c([C@H](c3nnnn3C3CCCC3)N3CCC(C)CC3)cc2c1 [compound 32] | – | – | 31.3 | PEST_LYP (LYP/PTPN22): 1.52; IC50 (LYP/PTPN22; LYP IC50): 20.6 µM
Cc1ccc2[nH]c(=O)c([C@H](c3nnnn3C(C)(C)C)N3CCCC4(CCCCC4)C3)cc2c1 [compound 33] | 21.2 | 1.33 | 28.2 | –
CCC(C)(C)n1nnnc1[C@@H](c1cc2ccc(C)cc2[nH]c1=O)N1CCCC2(CCCCC2)C1 [compound 34] | 21.4 | 1.6 | 34.2 | –
CCC(C)(C)n1nnnc1[C@@H](c1cc2ccc(OC)cc2[nH]c1=O)N1CCCC2(CCCCC2)C1 [compound 35] | 22.5 | 1.33 | 29.9 | –
Cc1ccc2[nH]c(=O)c([C@H](c3nnnn3C3CCCC3)N3CCN(c4ccccc4F)CC3)cc2c1 [compound 36] | – | – | 23.2 | PEST_LYP (LYP/PTPN22): 0.92
O=c1[nH]c2ccccc2cc1[C@@H](c1nnnn1C1CCCC1)N1CCc2ccccc2C1 [compound 37] | 28 | 1.13 | 31.5 | –
Cc1ccc2[nH]c(=O)c([C@H](c3nnnn3C3CCCC3)N3CCN(c4nc5ccccc5[nH]4)CC3)cc2c1 [compound 38] | 30.1 | 1.26 | 38.6 | –

Continued, in another order:

IC50 (LYP/PTPN22; [5]) [µM] | PEST_LYP (LYP/PTPN22; [6]) | IC50 (PTP-PEST; read-out: PEST IC50) [µM] | Structure (SMILES) | also measured
30.5 | 1.28 | 39 | Cc1ccc2[nH]c(=O)c([C@@H](c3nnnn3C3CCCC3)N3CCc4ccccc4C3)cc2c1 [compound 39] | –
30.6 | 1.12 | 34.4 | Cc1cc(C)c2cc([C@H](c3nnnn3C3CCCC3)N3CCC[C@@H](C)C3)c(=O)[nH]c2c1 [compound 40] | –
31 | ~1.18 | ~36.5 | Cc1ccc2cc([C@H](c3nnnn3C3CCCC3)N3CCN(c4ccccc4)CC3)c(=O)[nH]c2c1 [compound 41] | –
– | – | 40.5 | COc1ccc(N2CCN([C@H](c3cc4cc(C)ccc4[nH]c3=O)c3nnnn3C3CCCC3)CC2)cc1 [compound 42] | PEST_LYP (LYP/PTPN22): 1.27; IC50 (LYP/PTPN22; LYP IC50): 31.7 µM
31.9 | 2.52 | 80.3 | Cc1ccc2cc([C@H](c3nnnn3C3CCCC3)N3CCC[C@@H](C)C3)c(=O)[nH]c2c1 [compound 43] | –
32.5 | 2.11 | 68.5 | Cc1ccc2cc([C@@H](c3nnnn3C3CCCC3)N3CCCCC3)c(=O)[nH]c2c1 [compound 44] | –
– | – | 32.5 | Cc1ccc2[nH]c(=O)c([C@H](c3nnnn3C3CCCC3)N3CCN(c4ccccc4)CC3)cc2c1 [compound 47] | PEST_LYP (LYP/PTPN22): 0.89; IC50 (LYP/PTPN22; LYP IC50): 36.5 µM
39.5 | 1.15 | 45.5 | Cc1cc(C)c2[nH]c(=O)c([C@H](c3nnnn3C3CCCC3)N3CCC[C@@H](C)C3)cc2c1 [compound 49] | –
